Assay results published in ChEMBL document CHEMBL1201862, “PubChem BioAssay data set” (2004).
Calls of active or inactive are those of the source.

How the values were obtained:
Bcl-2-related protein A1 [1] = molecular target: T1, Bcl-2-related protein A1 (Mus musculus, UniProt Q07440); assay: Bfl-1 inhibitors, primary screen, biochemical, fluorescence polarization, FITC-Bid, mouse (AID 432)
T1 sequence (Q07440 whole entry): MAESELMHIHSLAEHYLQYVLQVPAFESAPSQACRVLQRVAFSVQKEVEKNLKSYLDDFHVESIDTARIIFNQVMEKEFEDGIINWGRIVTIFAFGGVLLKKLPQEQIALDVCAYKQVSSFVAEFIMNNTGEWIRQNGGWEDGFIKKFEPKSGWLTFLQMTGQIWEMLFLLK

[2] = molecular target: T2, Sentrin-specific protease 6 (Homo sapiens, UniProt Q9GZR1); assay type: functional;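 further: Luminescence-based dose-response confirmatory assay of SENP6 inhibition, following up an ultra-high-throughput screen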
T2 sequence (Q9GZR1 whole entry): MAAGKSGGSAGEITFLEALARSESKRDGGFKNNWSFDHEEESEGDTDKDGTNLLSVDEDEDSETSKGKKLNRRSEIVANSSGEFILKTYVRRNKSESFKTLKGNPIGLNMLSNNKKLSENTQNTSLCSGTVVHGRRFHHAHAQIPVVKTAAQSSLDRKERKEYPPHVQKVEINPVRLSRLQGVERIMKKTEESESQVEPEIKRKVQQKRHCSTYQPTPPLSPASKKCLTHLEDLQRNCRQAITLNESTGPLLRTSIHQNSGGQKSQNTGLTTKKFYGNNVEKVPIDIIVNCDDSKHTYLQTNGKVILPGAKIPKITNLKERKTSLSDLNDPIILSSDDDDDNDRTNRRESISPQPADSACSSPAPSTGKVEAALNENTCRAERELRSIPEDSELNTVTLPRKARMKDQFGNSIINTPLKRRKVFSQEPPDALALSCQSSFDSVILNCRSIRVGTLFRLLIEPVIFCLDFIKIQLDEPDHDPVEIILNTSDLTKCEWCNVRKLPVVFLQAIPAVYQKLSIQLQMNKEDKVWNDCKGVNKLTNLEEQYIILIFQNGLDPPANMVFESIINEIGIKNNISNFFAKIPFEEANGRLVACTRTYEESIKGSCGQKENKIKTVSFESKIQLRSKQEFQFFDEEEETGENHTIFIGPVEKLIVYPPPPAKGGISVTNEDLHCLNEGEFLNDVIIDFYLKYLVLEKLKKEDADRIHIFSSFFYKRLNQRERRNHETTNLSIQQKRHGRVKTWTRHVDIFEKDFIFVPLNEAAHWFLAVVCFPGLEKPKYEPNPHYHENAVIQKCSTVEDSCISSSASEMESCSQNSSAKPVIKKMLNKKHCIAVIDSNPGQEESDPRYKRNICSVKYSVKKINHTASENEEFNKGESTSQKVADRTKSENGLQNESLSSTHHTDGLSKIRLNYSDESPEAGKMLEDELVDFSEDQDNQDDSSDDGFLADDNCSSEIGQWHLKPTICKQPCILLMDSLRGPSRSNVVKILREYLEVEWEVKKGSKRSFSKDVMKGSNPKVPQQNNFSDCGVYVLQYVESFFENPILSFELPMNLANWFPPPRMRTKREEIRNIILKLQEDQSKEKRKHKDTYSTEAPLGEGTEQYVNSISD

Bcl-2-related protein A1 [3] = molecular target: T1, Bcl-2-related protein A1; assay: Bfl-1 inhibitors blocking BH3 peptide binding, confirmation, biochemical, TR-FRET, mouse Bfl-1 (AID 621);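 further: TR-FRET binding of GST-Bfl-1 to FITC-labelled Bid peptide via terbium antibody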
Cysteine protease ATG4B = molecular target: T3, Cysteine protease ATG4B (Homo sapiens, UniProt Q9Y4P1); assay type: functional;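 further: Fluorescence-based dose-response confirmation assay measuring inhibition of ATG4B activity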
T3 sequence (Q9Y4P1 whole entry): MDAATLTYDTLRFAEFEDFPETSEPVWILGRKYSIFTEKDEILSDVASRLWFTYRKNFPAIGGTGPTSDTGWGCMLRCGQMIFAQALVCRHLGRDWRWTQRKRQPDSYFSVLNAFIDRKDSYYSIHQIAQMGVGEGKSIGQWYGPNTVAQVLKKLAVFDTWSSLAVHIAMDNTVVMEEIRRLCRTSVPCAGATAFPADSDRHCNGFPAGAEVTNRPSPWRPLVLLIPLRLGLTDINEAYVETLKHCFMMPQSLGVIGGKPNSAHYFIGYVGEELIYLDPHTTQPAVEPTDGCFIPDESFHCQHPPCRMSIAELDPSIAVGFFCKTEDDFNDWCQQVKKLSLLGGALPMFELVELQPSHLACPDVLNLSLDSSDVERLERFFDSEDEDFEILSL

INS1 = assay: beta cell apoptosis inhibitors, cytokine rescue, dose response, luminescence, retest (AID 449756); assay type: functional, cell-based; conditions: Rattus norvegicus;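 further: cell death triggered by IL-1 beta plus TNF-alpha plus IFN-gamma mixture; protective hits raise ATP signal compared with cytokine alone wells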
[4] = cytotoxicity toward NIH3T3 fibroblasts, dose response, counter-screen, cell-based, ATP luminescence, mouse fibroblasts (AID 2010); assay type: functional;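 further: cells exposed to compound for about 90 hours before reading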
CAAX prenyl protease 2 = molecular target: T4, CAAX prenyl protease 2 (Saccharomyces cerevisiae S288c, UniProt Q03530); assay type: biochemical
T4 sequence (Q03530 whole entry): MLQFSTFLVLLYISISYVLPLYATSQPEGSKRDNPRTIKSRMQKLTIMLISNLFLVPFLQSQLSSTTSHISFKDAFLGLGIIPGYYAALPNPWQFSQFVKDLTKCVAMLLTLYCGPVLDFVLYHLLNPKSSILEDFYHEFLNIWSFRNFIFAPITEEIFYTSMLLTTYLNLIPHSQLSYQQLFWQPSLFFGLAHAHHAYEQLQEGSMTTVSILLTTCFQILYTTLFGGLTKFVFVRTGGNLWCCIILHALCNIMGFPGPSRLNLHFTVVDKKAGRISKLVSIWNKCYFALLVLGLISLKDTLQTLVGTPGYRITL

Beta-lactamase = Beta-lactamase (Pseudomonas aeruginosa, UniProt Q79MP6);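 further: biochemical dose-response test of metallo-beta-lactamase enzyme inhibition, read out by epi-absorbance; purified recombinant IMP-1 metallo-beta-lactamase with nitrocefin as substrate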
[5] = molecular target: Voltage-gated N-type calcium channel alpha-1B subunit/Amyloid beta A4 precursor protein-binding family A member 1 (Homo sapiens, UniProt Q00975+Q02410); assay type: protein assay
[6] = molecular target: T5, Mannose-6-phosphate isomerase (Homo sapiens, UniProt P34949); assay: human PMI inhibitors, high substrate, primary screen, biochemical, fluorescence intensity, high mannose 6-phosphate (AID 1220)
T5 sequence (P34949 whole entry): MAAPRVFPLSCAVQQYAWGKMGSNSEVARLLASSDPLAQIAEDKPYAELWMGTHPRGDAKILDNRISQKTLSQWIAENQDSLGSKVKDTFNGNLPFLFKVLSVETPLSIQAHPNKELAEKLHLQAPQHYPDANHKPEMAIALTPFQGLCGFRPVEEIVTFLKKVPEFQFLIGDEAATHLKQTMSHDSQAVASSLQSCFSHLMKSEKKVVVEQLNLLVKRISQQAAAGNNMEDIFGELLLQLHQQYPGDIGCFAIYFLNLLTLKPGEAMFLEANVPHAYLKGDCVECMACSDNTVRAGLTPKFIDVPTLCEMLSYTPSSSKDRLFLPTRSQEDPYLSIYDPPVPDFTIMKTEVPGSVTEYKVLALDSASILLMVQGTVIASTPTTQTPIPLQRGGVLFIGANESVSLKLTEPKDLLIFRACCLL

Nonstructural protein 1 = Nonstructural protein 1 (Influenza A virus, UniProt Q194T2); assay type: functional, Influenza A virus (A/California/07/2009(H1N1))
Chain of Nonstructural protein 1 (Q194T2 whole entry): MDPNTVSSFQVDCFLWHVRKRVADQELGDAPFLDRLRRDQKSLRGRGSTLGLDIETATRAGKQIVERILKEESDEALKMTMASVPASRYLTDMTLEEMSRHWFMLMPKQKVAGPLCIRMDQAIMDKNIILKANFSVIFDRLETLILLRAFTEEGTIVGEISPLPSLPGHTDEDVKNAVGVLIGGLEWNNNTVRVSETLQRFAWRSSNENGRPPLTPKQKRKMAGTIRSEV

Chain of Voltage-gated N-type calcium channel alpha-1B subunit/Amyloid beta A4 precursor protein-binding family A member 1 (Q00975 whole entry): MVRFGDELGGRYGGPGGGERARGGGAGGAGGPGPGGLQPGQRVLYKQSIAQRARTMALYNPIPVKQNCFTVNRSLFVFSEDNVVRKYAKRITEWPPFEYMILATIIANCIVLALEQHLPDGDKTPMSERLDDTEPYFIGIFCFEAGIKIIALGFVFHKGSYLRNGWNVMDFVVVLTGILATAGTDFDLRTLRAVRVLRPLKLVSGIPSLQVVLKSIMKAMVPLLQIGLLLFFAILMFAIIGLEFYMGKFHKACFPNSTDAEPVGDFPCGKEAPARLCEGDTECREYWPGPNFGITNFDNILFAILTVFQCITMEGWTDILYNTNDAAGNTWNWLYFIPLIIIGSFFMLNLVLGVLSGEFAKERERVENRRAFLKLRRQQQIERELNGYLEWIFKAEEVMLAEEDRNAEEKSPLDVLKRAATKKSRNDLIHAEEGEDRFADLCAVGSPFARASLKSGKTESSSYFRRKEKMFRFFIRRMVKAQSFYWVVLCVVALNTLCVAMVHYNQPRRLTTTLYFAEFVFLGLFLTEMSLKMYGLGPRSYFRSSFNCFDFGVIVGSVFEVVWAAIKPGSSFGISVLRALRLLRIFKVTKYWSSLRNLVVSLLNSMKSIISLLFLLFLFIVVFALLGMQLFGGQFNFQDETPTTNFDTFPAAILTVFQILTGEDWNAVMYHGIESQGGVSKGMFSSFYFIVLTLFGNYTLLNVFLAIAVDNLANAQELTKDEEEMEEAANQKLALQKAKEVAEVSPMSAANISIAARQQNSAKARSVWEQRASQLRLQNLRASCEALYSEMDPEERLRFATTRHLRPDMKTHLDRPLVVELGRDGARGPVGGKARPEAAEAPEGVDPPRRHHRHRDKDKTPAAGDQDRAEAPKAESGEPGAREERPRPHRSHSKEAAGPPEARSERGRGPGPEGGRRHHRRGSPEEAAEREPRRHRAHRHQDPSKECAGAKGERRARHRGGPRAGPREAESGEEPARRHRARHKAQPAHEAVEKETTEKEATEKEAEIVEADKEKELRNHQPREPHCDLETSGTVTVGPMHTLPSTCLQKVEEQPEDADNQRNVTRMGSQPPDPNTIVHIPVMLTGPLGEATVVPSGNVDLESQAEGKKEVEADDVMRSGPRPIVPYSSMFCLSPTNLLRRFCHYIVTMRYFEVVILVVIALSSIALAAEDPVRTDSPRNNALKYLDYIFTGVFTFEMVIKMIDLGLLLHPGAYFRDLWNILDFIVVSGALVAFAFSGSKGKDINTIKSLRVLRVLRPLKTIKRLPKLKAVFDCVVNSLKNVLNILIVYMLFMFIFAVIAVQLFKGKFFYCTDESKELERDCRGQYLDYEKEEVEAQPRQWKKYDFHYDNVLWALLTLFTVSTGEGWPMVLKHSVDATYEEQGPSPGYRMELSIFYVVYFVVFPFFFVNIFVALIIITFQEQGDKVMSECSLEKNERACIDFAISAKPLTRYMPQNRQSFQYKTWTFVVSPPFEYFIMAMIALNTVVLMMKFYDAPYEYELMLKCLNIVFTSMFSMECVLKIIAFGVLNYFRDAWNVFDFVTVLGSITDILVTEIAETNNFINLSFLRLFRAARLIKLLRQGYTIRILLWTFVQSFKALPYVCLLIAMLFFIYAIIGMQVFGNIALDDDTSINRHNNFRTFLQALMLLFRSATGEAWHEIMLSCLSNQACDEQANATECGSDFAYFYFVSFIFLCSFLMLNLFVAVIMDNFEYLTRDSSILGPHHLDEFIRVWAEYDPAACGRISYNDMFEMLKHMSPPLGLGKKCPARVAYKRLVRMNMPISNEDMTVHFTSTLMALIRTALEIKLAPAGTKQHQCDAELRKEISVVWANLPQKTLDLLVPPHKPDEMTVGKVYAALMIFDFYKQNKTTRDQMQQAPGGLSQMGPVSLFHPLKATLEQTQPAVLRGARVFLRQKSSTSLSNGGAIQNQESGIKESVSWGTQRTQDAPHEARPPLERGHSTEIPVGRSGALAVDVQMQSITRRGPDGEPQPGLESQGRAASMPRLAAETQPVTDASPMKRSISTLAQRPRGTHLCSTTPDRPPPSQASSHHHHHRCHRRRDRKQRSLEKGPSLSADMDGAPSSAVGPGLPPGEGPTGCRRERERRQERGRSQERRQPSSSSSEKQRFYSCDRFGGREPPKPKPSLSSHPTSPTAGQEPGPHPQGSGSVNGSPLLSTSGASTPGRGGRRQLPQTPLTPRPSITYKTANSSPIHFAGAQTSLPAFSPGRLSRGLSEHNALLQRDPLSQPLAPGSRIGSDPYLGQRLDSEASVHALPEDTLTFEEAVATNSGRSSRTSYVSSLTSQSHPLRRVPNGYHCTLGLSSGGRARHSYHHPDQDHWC
Chain of Voltage-gated N-type calcium channel alpha-1B subunit/Amyloid beta A4 precursor protein-binding family A member 1 (Q02410 whole entry): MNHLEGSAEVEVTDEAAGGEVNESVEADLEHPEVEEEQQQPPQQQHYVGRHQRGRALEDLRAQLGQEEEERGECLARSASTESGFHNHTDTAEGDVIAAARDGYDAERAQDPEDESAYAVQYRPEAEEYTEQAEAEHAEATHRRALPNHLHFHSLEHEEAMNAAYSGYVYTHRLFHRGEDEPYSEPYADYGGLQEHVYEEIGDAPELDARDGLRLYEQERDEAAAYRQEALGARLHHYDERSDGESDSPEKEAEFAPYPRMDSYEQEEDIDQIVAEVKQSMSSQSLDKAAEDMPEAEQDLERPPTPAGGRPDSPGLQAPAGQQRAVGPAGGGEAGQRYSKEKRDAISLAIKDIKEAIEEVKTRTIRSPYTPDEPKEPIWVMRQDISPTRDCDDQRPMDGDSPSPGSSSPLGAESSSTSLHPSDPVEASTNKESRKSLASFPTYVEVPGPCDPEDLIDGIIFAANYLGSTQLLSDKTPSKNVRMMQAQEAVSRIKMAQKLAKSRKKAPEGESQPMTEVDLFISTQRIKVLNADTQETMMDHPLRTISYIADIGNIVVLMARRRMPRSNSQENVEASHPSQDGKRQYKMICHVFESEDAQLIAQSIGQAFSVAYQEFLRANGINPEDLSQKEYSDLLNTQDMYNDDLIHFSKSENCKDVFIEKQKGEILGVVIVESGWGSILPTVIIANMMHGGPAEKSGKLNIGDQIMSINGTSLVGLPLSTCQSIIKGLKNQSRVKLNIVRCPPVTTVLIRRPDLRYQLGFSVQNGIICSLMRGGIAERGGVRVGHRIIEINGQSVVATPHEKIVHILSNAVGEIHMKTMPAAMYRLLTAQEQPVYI
Chain of Beta-lactamase (Q79MP6 whole entry): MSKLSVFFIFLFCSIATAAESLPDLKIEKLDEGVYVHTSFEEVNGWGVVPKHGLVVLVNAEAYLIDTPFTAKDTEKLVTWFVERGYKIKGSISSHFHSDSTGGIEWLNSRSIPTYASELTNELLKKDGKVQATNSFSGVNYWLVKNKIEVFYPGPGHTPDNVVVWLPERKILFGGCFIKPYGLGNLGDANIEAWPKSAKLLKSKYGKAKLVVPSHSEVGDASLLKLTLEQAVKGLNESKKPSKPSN

Structure (SMILES): Oc1nc(Nc2ccccc2)cc2ccccc12
- IC50 (Bcl-2-related protein A1 [1]): > 100 µM (not active)
- IC50 [2]: 0.345 µM (active)
- IC50 (Bcl-2-related protein A1 [3]): > 100 µM (not active)
- IC50 (Cysteine protease ATG4B): 9.22 µM (active)

Structure (SMILES): CCCCCCCCCCOC(=O)C[n+]1c(COc2ccccc2C)n(C)c2ccccc21
- AC50 (INS1): 2.16 µM (active)
- EC50 [4]: > 60 µM (not active)
- AC50 (CAAX prenyl protease 2): 8.72 µM (active)

Structure (SMILES): COc1cc(OC)c(-c2c3cc(O)c(=O)cc-3oc3cc(O)c(O)cc23)cc1OC
- IC50 (Beta-lactamase): 5.62 µM (active)
- IC50 [5]: > 50 µM (inactive)
- IC50 [6]: > 50 µM (not active)
- IC50 (Nonstructural protein 1): 41.7 µM (active)
